This is an account of results in US20010044445A1, “AZOLE INHIBITORS OF CYTOKINE PRODUCTION” (priority 1999, published 2001).

Series [1] relates to Human peripheral blood mononuclear cells. In words: Human Concanavalin-A Proliferation Assay (Con HU Assay). It counts as cell-based. Particulars: Homo sapiens, PBMC, concanavalin-A stimulated human PBMC; for inhibition at 100 µM / inhibition at 1 µM / inhibition at 10 µM: 72 h, 3 days, read-out: % Inhibition of proliferation (at concentrations of 1,10, or 100 μm); for inhibition at 100 µM: concentration 100 μm (in parentheses in the cell); for IC50: tritiated thymidine; for inhibition at 1 µM: concentration 1 μm (in parentheses in the cell); for inhibition at 10 µM: concentration 10 μm (in parentheses in the cell). Summed up: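 Proliferation read as tritiated thymidine uptake (0.5 μCi/well, 6 h pulse on day 3) in human PBMC cultured 3 days with 2.5 μg/ml (final) concanavalin-A. Cells, 50,000 per well in supplemented RPMI 1640 with 10% FBS, received compound 15 min before mitogen.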

The melting point is the temperature of the solid-liquid transition. What is called IC50 is the point on the concentration scale where inhibition reaches its midpoint. The low end stands for greater potency in that assay, the high end for weaker potency in that assay. As to `O=C(Nc1ccc(-n2nc(C(F)(F)F)cc2C(F)(F)F)cc1)c1ccccc1C(F)(F)F` [Example 127, N-[4-[3,5-bis(trifluoromethyl)-1H-pyrazol-1-yl]phenyl]-2-(trifluoromethyl)benzamide], the melting point is 133 to 135 °C. Besides, in series [1], the inhibition at 100 µM worked out at 100% and the IC50 worked out at 0.487 µM.
The compound `O=C(Nc1cccc(-n2nc(C(F)(F)F)cc2C(F)(F)F)c1)c1ccc(F)cc1F` [Example 203, N-[3-[3,5-bis(trifluoromethyl)-1H-pyrazol-1-yl]phenyl]-2,4-difluorobenzamide] displayed a melting point of 133 to 134 °C. Moreover, the inhibition at 1 µM in series [1] is 1%.
Compound `N#Cc1ccc(C(=O)Nc2ccc(-n3nc(C(F)(F)F)cc3C(F)(F)F)cc2)cc1` [Example 67, N-[4-[3,5-bis(trifluoromethyl)-1H-pyrazol-1-yl]phenyl]-4-cyanobenzamide] came in with a melting point of 169 to 171 °C. Moreover, in series [1], the inhibition at 100 µM turned out to be 100% and the IC50 came to 0.254 µM.
`O=C(Nc1ccccc1Cl)c1ccc(-n2nc(C(F)(F)F)cc2C(F)(F)F)cc1` [Example 185, 4-[3,5-Bis(trifluoromethyl)-1H-pyrazol-1-yl]-N-(2-chlorophenyl)benzamide]: the melting point is 162 to 164 °C. Besides, in series [1], the inhibition at 1 µM was 26%.
In the case of `Cc1ccc([N+](=O)[O-])c(C(=O)Nc2ccc(-n3nc(C(F)(F)F)cc3C(F)(F)F)cc2)c1` [Example 237, N-[4-[3,5-bis(trifluoromethyl)-1H-pyrazol-1-yl]phenyl]-5-methyl-2-nitrobenzamide], the melting point fell in the range of 188 to 189 °C. Further, in series [1], the inhibition at 100 µM turned out to be 100% and the half-maximal inhibitory concentration (IC50) is 0.368 µM.
The compound `N#Cc1ccc(NC(=O)c2ccc(-n3nc(C(F)(F)F)cc3C(F)(F)F)cc2)cc1` [Example 193, 4-[3,5-Bis(trifluoromethyl)-1H-pyrazol-1-yl]-N-(4-cyanophenyl)benzamide] displayed a melting point of 192 to 193 °C. In addition, the inhibition at 1 µM in series [1] turned out to be 8%.
For `CS(=O)(=O)c1ccc(C(=O)Nc2ccc(-n3nc(C(F)(F)F)cc3C(F)(F)F)cc2)cc1` [Example 109, N-[4-[3,5-bis(trifluoromethyl)-1H-pyrazol-1-yl]phenyl]-4-(methylsulfonyl)benzamide], the melting point was 216 to 218 °C. Also, the inhibition at 1 µM in series [1] was determined as 45%.
With `N#Cc1cccc(/C=C/c2ccc(-n3nc(C(F)(F)F)cc3C(F)(F)F)cc2)c1` [Example 132, (E)-3-[2-[4-[3,5-bis(trifluoromethyl)-1H-pyrazol-1-yl]phenyl]ethenyl]benzonitrile], the melting point lay in the range of 116 to 117 °C. In series [1], the inhibition at 10 µM amounted to 56% and the half-maximal inhibitory concentration (IC50) came out at 6.21 µM.
`Cc1ccoc1C(=O)Nc1ccc(-n2nc(C(F)(F)F)cc2C(F)(F)F)cc1` [Example 252, N-[4-[3,5-bis(trifluoromethyl)-1H-pyrazol-1-yl]phenyl]-3-methyl-2-furancarboxamide]: the melting point was 119 to 120 °C. Also, the inhibition at 1 µM in series [1] was 36%.
Turning to `O=C(Nc1ccc(-n2nc(C(F)(F)F)cc2C(F)(F)F)cc1)c1cccc(O)c1` [Example 104, N-[4-[3,5-bis(trifluoromethyl)-1H-pyrazol-1-yl]phenyl]-3-hydroxybenzamide], the melting point is 221 to 223 °C. Also, in series [1], the inhibition at 100 µM came out at 99% and half-maximal inhibition (IC50) was put at 0.394 µM.
Turning to `O=C(Nc1ccc(-n2nc(C(F)(F)F)cc2C(F)(F)F)cc1)c1ccccc1O` [Example 103, N-[4-[3,5-bis(trifluoromethyl)-1H-pyrazol-1-yl]phenyl]-2-hydroxybenzamide], the melting point lay in the range of 173 to 175 °C. In addition, the inhibition at 1 µM in series [1] turned out to be 14%.
The compound `O=C(Nc1ccc(-n2nc(C(F)(F)F)cc2C(F)(F)F)cc1)c1ccc([N+](=O)[O-])cc1` [Example 93, N-[4-[3,5-bis(trifluoromethyl)-1H-pyrazol-1-yl]phenyl]-4-nitrobenzamide] registered a melting point of 185 to 188 °C. For the same compound, in series [1], the inhibition at 100 µM is 100% and the IC50 was determined as 0.365 µM.
The compound `O=C(Nc1ccc(-n2nc(C(F)(F)F)cc2C(F)(F)F)cc1)Nc1ccc(Cl)c([N+](=O)[O-])c1` [Example 79, N-[4-[3,5-bis(trifluoromethyl)-1H-pyrazol-1-yl]phenyl]-N′-(4-chloro-3-nitrophenyl)urea] yielded a melting point of 207 to 209 °C. For the same compound, in series [1], the inhibition at 1 µM is 9%.
Compound `Cc1c(C(=O)Nc2ccc(-n3nc(C(F)(F)F)cc3C(F)(F)F)cc2)cccc1[N+](=O)[O-]` [Example 15, N-[4-[3,5-bis(trifluoromethyl)-1H-pyrazol-1-yl]phenyl]-2-methyl-3-nitrobenzamide] had a melting point of 194 to 195 °C. Also, in series [1], the inhibition at 100 µM is 99% and half-maximal inhibition (IC50) required 0.274 µM.
As for `O=C(Nc1ccc(-n2nc(C(F)(F)F)nc2Cl)cc1)c1ccncc1F` [Example 336, N-(4-(5-chloro-3-(trifluoromethyl)-1H-1,2,4-triazol-1-yl)phenyl)-3-fluoroisonicotinamide], the melting point lay within 167 to 170 °C. Further, in series [1], the 50% inhibitory concentration (IC50) was 1.83 µM.
With `O=C(Nc1ccc(-n2nc(C(F)(F)F)cc2OC(F)F)cc1)c1cccc(F)c1F` [Example 354, N-(4-(5-(difluoromethoxy)-3-(trifluoromethyl)-1H-pyrazol-1-yl)phenyl)-2,3-difluorobenzamide], the melting point is 154 to 155 °C. Also, half-maximal inhibition in series [1] (IC50) required 0.075 µM.
Consider `COc1cncc(Cl)c1C(=O)Nc1ccc(-n2nc(C(F)(F)F)cc2C(F)(F)F)cc1` [Example 291, N-(4-(3,5-bis(trifluoromethyl)-1H-pyrazol-1-yl)phenyl)-3-chloro-5-methoxyisonicotinamide], for which the melting point was 187 to 188 °C. Besides, half-maximal inhibition in series [1] (IC50) required 0.411 µM.
In the case of `Cc1noc(C)c1C(=O)Nc1ccc(-n2nc(C(F)(F)F)cc2C(F)(F)F)c(C(F)(F)F)c1` [Example 275, N-[4-[3,5-bis(trifluoromethyl)-1H-pyrazol-1-yl]-3-(trifluoromethyl)phenyl]-3,5-dimethyl-4-isoxazolecarboxamide], the melting point fell in the range of 61 to 63 °C. For the same compound, in series [1], the inhibition at 1 µM turned out to be 8%.
As to `COc1cc(-n2nc(C(F)(F)F)cc2C(F)(F)F)ccc1NC(=O)c1snnc1C` [Example 280, N-[4-[3,5-bis(trifluoromethyl)-1H-pyrazol-1-yl]-2-methoxyphenyl]-4-methyl-1,2,3-thiadiazole-5-carboxamide], the melting point lay within 119 to 121 °C. In addition, the inhibition at 10 µM in series [1] stood at 16%.
Consider `O=C(Nc1ccc(-n2nc(C(F)(F)F)cc2C(F)(F)F)cc1)c1ccc([N+](=O)[O-])o1` [Example 247, N-[4-[3,5-bis(trifluoromethyl)-1H-pyrazol-1-yl]phenyl]-5-nitro-2-furancarboxamide], for which the melting point lay within 198 to 199 °C. In addition, in series [1], the inhibition at 10 µM was found to be 97% and the IC50 stood at 0.375 µM.
As to `O=C(Nc1ccc(-n2nc(C(F)(F)F)cc2C(F)(F)F)cc1)c1c(F)cc(F)cc1F` [Example 229, N-[4-[3,5-bis(trifluoromethyl)-1H-pyrazol-1-yl]phenyl]-2,4,6-trifluorobenzamide], the melting point was in the range of 183 to 185 °C. For the same compound, in series [1], the inhibition at 10 µM was found to be 99% and the IC50 came to 0.04 µM.
`COc1ccc(C(=O)Nc2ccc(-n3nc(C(F)(F)F)cc3C(F)(F)F)cc2)cc1Br` [Example 221, N-[4-[3,5-bis(trifluoromethyl)-1H-pyrazol-1-yl]phenyl]-3-bromo-4-methoxybenzamide] displayed a melting point of 197 to 198 °C. In series [1], the inhibition at 10 µM worked out at 98% and the half-inhibitory concentration (IC50) amounted to 0.411 µM.
For the compound `COc1cc(C(F)(F)F)nn1-c1ccc(NC(=O)c2ccncc2F)cc1` [Example 321, 3-fluoro-N-(4-(5-methoxy-3-(trifluoromethyl)-1H-pyrazol-1-yl)phenyl)isonicotinamide], the melting point lay in the range of 160 to 161 °C. Besides, in series [1], 0.185 µM corresponded to half-maximal inhibition (IC50).
`COc1ccccc1C(=O)Nc1ccc(-n2nc(C(F)(F)F)cc2C(F)(F)F)cc1` [Example 143, N-[4-[3,5-bis(trifluoromethyl)-1H-pyrazol-1-yl]phenyl]-2-methoxybenzamide] displayed a melting point of 100 to 102 °C. In addition, in series [1], the inhibition at 100 µM is 100% and the IC50 stood at 1.68 µM.
`CSCCC(=O)Nc1ccc(-n2nc(C(F)(F)F)cc2C(F)(F)F)cc1` [Example 65, N-[4-[3,5-bis(trifluoromethyl)-1H-pyrazol-1-yl]phenyl]-3-(methylthio)propanamide] showed a melting point of 122 to 123 °C. For the same compound, in series [1], the inhibition at 100 µM came to 98% and the IC50 came out at 1.82 µM.
On to `Cc1nc(C)n(-c2ccc(NC(=O)c3c(C)noc3C)cc2)n1` [Example 189, 3,5-dimethyl-N-[4-(3,5-dimethyl-1H-1,2,4-triazol-1-yl)phenyl]-4-isoxazolecarboxamide], for which the melting point fell in the range of 170 to 171 °C. Further, in series [1], the inhibition at 1 µM was 24%.
The compound `O=C(Nc1cccc(-n2nc(C(F)(F)F)cc2C(F)(F)F)c1)c1cc([N+](=O)[O-])ccc1Cl` [Example 199, N-[3-[3,5-bis(trifluoromethyl)-1H-pyrazol-1-yl]phenyl]-2-chloro-5-nitrobenzamide] registered a melting point of 147 to 152 °C. Moreover, the inhibition at 1 µM in series [1] stood at 30%.
